Where two headings read alike, the source gives them in different places.
What was measured:
[1] = system: microglia; details: 24 hours
Procedure: Microglia cultured by the cell culture method of Example 1 was treated with 0.1 μg/μl of MNPs@SiO2(RITC) (average diameter of 50 nm), silica nanoparticles (SiO2, average diameter of 50 nm), silver nanoparticles (Ag, average diameter of 20 nm), gold nanoparticles (Au, average diameter of 10 nm), quantum dot nanoparticles (CdSe, average diameter of 10 nm), polystyrene microplastics (PS, average diameter of 2 μm and 100 nm), urban particulate matters (UPM, NIST 1648A), silica nanoparticles (SiO2, average diameter of 30 nm), titanium oxide nanoparticles (TiO2, average diameter of 40 nm), and carbon nanotubes (MWCNT, average diameter of 25 nm) for 24 hours, and then images were taken using fluorescence and optical microscopes (Axio Vert 200M fluorescence microscopy, Zeiss, Jena, Germany). Fluorescence of MNPs@SiO2(RITC) (average diameter of 50 nm) and quantum dot nanoparticles (CdSe, average diameter of 10 nm) which are fluorescent were photographed also.

[2] = system: microglia; details: 0.1 μg/μl of each of 11 nanoparticles/particulate matters, 24 hours, formazan absorbance at 490 nm
Procedure: Microglia cultured by the cell culture method of Example 1 were treated with 0.1 μg/μl of MNPs@SiO2(RITC) (average diameter of 50 nm), silica nanoparticles (SiO2, average diameter of 50 nm), silver nanoparticles (Ag, average diameter of 20 nm), gold nanoparticles (Au, average diameter of 10 nm), quantum dot nanoparticles (CdSe, average diameter of 10 nm), polystyrene microplastics (PS, average diameter of 2 μm and 100 nm), urban particulate matters (UPM, NIST 1648A), silica nanoparticles (SiO2, average diameter of 30 nm), titanium oxide nanoparticles (TiO2, average diameter of 40 nm), and carbon nanotubes (MWCNT, average diameter of 25 nm) for 24 hours, a kit (CellTilter 96 Aqueous One Solution Cell Proliferation Assay, Promega Corporation, Madison, WI) for analyzing cell viability based on the activity of succinic dehydrogenase was mixed, and the degree of formazan formation in accordance with the cell viability was measured with absorbance at 490 nm.

[3] = system: microglia; details: 24 hours; remark: listed apart in the source
Procedure: After the cells were suspended, the number of cells was measured and adjusted to the same cell number. The cells became luminescent according to the amount of ATP using a luciferin-based ATP luminescence measurement kit (Promega, USA), the luminescence degree was measured by a luminometer (LMaxII384; Molecular Devices, USA), and ChemiDoc™ Touch Gel Imaging System (Bio-Rad) was used for imaging.

## O=C(O)CC(O)(CC(=O)O)C(=O)O [citric acid]
[1]; 0.1 μg/μl MNPs@SiO2(RITC)
  decrease in the cell number due to particles: mitigated
[1]; 0.1 μg/μl gold nanoparticles (Au, 10 nm)
  decrease in the cell number due to particles: mitigated
[1]; 0.1 μg/μl polystyrene microplastics (PS, 2 μm)
  decrease in the cell number due to particles: mitigated
[1]; 0.1 μg/μl polystyrene microplastics (PS, 100 nm)
  decrease in the cell number due to particles: mitigated
[1]; 0.1 μg/μl quantum dot nanoparticles (CdSe, 10 nm)
  decrease in the cell number due to particles: mitigated
[1]; 0.1 μg/μl silica carbon nanotubes (MWCNT, 25 nm)
  decrease in the cell number due to particles: mitigated
[1]; 0.1 μg/μl silica nanoparticles (SiO2, 30 nm)
  decrease in the cell number due to particles: mitigated
[1]; 0.1 μg/μl silica nanoparticles (SiO2, 50 nm)
  decrease in the cell number due to particles: mitigated
[1]; 0.1 μg/μl silver nanoparticles (Ag, 20 nm)
  decrease in the cell number due to particles: mitigated
[1]; 0.1 μg/μl titanium oxide nanoparticles (TiO2, 40 nm)
  decrease in the cell number due to particles: mitigated
[1]; 0.1 μg/μl urban particulate matters (UPM, NIST 1648A)
  decrease in the cell number due to particles: mitigated
[2]
  reduction in cell viability due to nanoparticles and particulate matters: mitigated
[3]; 0.01 or 0.1 μg/μl MNPs@SiO2(RITC), luminescence
  ATP reduction induced by MNPs@SiO2(RITC): inhibited
[3]; co-treated with 0.1 μg/μl MNPs@SiO2(RITC) (50 nm)
  ATP increase compared to group treated only with MNPs@SiO2(RITC): 30%

From US20260083815A1, “COMPOSITION FOR INHIBITING TOXICITY OF NANOPARTICLES AND ENVIRONMENTALLY-DERIVED FINE PARTICLES” (AJOU UNIVERSITY INDUSTRY-ACADEMIC COOPERATION FOUNDATION, priority 2019, published 2026)
